Measurements reported in publication PMC10006169, “A phase I trial of LXS196, a protein kinase C (PKC) inhibitor, for metastatic uveal melanoma” (British Journal of Cancer, 2023).

Columns and labels:
[1] = test system: UM cell lines containing mutant GNAQ or GNA11; conditions: cited from earlier work
[2] = test system: pPKC delta; assay: pPKC delta in PBMCs; format: in vivo, human; conditions: all dose levels
Excerpt: (§1) Fresh metastatic tumour biopsies were collected at baseline (prior to first dose) and on treatment at C1D15 to evaluate the modulation of PKC substrate proteins in tumours following exposure to LXS196 and to perform exploratory transcriptome and targeted DNA sequencing. Whole blood samples (peripheral blood mononuclear cells; PBMCs) were collected pre-dose on C1D1 and D15, and at various time points post-dose on C1D1, D2, D3, D15 and D16 to evaluate the modulation of PKC substrate proteins in a surrogate tissue. Owing to the exploratory nature of this phase I study, formal statistical tests were not planned to be performed. Data are presented using descriptive statistics and visualisations. Continuous variables are described with the mean and range. Categorical variables are described using counts and percentages. PFS is described using the Kaplan–Meier (KM) method.

[3] = test system: MARCKS (pMARCKS); assay: pMARCKS in tumour biopsies (Meso Scale Discovery); format: in vivo, human; conditions: QD schedule
Excerpt: as §1, with “Categorical variables are described using counts and percentages. PFS is described using the Kaplan–Meier (KM) method.” left out
Custom assays were developed to measure the status of the PKC pathway. In brief, tumour tissue was homogenised in lysis buffer, and total protein concentrations were determined using a bicinchoninic acid (BCA) assay (Pierce). […] Total and phosphorylated PKCdelta (PKCd; pPKCd, phosphorylated at S299) levels were determined using microcapillary electrophoresis on the Sally Sue platform (Protein Simple, San Jose, CA, USA). Area under the peaks corresponding to the target was measured and used for further calculation. […]
Total and phosphorylated MARCKS were measured in all feasible tumour biopsies. […] The normalised MARCKS is calculated as follows: […]

[4] = test system: patients with MUM; assay: Patient disposition, duration of exposure and dose interruptions; format: in vivo
Procedure: During dose escalation, patients received oral LXS196 either once daily (QD; 100–1000 mg) or twice daily (BID; 200–400 mg) in 28-day cycles until disease progression, intolerable toxicity or withdrawal of consent (Supplementary Fig. 1). Dosing was omitted on the second day of the first cycle (C1D2) to allow for longer post-dose sampling in order to better characterise PK. LXS196 was given on an empty stomach, at least 1 h before or 2 h after a meal. Dose escalation was guided by safety, PK data and a two-parameter Bayesian Logistic Regression Model (BLRM) employing escalation with overdose control (EWOC) criteria. The DLT period lasted 28 days after the first dose of LXS196. […] Upon determination of the MTD/RDE, the expansion part of the study was opened to further evaluate the safety, tolerability, PK and PD of LXS196 at the RDE in patients with MUM. No hypothesis testing was planned in this study, and therefore, no formal sample size calculation was needed. The sample size was selected to ensure the BLRM had adequate operating characteristics when selecting the MTD/RDE.
Routine safety assessments, including laboratory assessments, physical examinations, vital signs and electrocardiograms (ECGs), were conducted at regular intervals throughout the study and more frequently as needed following patient assessment by the treating physician. Adverse events (AEs) were assessed continuously according to the National Cancer Institute Common Terminology Criteria for Adverse Events (NCI-CTCAE) v4.03.

CC1(N)CCN(c2cccnc2NC(=O)c2nc(-c3ncccc3C(F)(F)F)cnc2N)CC1 [LXS196]
Cellular activity [1]: cellular activity restricted to UM cell lines containing mutant GNAQ or GNA11
Time post-dose to reduction in pPKC delta in PBMCs [2]: ≤ 6 h
pMARCKS, mean (range) percentage change from baseline to C1D15 (normalised ratio) [3]: −39.7 (−89.7, 199) %
Dose interruption by reason: adverse event ([4]; 300 mg BID (RDE) n=18): 3 (16.7) n (%)
Dose interruption by reason: patient/guardian decision ([4]; 300 mg BID (RDE) n=18): 0 n (%)
Dose interruption by reason: physician decision ([4]; 300 mg BID (RDE) n=18): 0 n (%)
With at least one dose interruption ([4]; 300 mg BID (RDE) n=18): 3 (16.7) n (%)
With more than one dose interruption ([4]; 300 mg BID (RDE) n=18): 1 (5.6) n (%)
With only one dose interruption ([4]; 300 mg BID (RDE) n=18): 2 (11.1) n (%)
Dose interruption by reason: adverse event ([4]; All BID n=30): 5 (16.7) n (%)
Dose interruption by reason: patient/guardian decision ([4]; All BID n=30): 1 (3.3) n (%)
Dose interruption by reason: physician decision ([4]; All BID n=30): 0 n (%)
With at least one dose interruption ([4]; All BID n=30): 6 (20) n (%)
With more than one dose interruption ([4]; All BID n=30): 3 (10.0) n (%)
With only one dose interruption ([4]; All BID n=30): 3 (10) n (%)
Dose interruption by reason: adverse event ([4]; All QD n=38): 11 (28.9) n (%)
Dose interruption by reason: patient/guardian decision ([4]; All QD n=38): 0 n (%)
Dose interruption by reason: physician decision ([4]; All QD n=38): 1 (2.6) n (%)
With at least one dose interruption ([4]; All QD n=38): 11 (28.9) n (%)
With more than one dose interruption ([4]; All QD n=38): 5 (13.2) n (%)
With only one dose interruption ([4]; All QD n=38): 6 (15.8) n (%)
Dose interruption by reason: adverse event ([4]; All patients N=68): 16 (23.5) n (%)
Dose interruption by reason: patient/guardian decision ([4]; All patients N=68): 1 (1.5) n (%)
Dose interruption by reason: physician decision ([4]; All patients N=68): 1 (1.5) n (%)
With at least one dose interruption ([4]; All patients N=68): 17 (25) n (%)
With more than one dose interruption ([4]; All patients N=68): 8 (11.8) n (%)
With only one dose interruption ([4]; All patients N=68): 9 (13.2) n (%)
